Experimental data from patent US20220387412A1, “Novel Superebastine Against Therapy Resistant Prostate Cancer” (University of Kentucky Research Foundation, priority 2019, published 2022).
Entries after “also recorded” stand apart in the source; their conditions may differ.

How the values were obtained:
Type in all cases: cell-based
[1] = system: PC-3 cells; assay: Resazurin cell viability assay, PC-3; settings: for cell viability (resazurin): PC-3, 10 μM
Method: (§1) Mean+SD shown. (*) Asterisk indicates […] by the Student's t-test.
(§2) Cell viability was then measured by resazurin assays. […] On the other hand, Super-EBS (10 μM) was effective in 24 hours. […] Mean+SD are shown. P<0.01 by Student's t-test.

[2] = system: LNCaP cells; assay: Western blot for γH2AX (Ser139), DNA double stranded breaks, LNCaP; settings: 0.25 or 0.5 μM, 24 h
Method: (§3) FIGS. 7A-B show images illustrating that Super-EBS induces DNA damage in AR-positive prostate cancer cells. (A) C4-2 cells were treated with Super-EBS (0.5 or 1 μM) for 24 h in 10% FBS containing medium. […] Lysates were probed for YH2AX (Ser139 phosphorylation), a marker for DSB by Western blot analysis.
(§4) Super-EBS induces DNA damage in AR-positive prostate cancer cells. Lysates from AR-positive androgen-independent C4-2 cells (FIG. 7A) or androgen-dependent LNCaP cells (FIG. 7B) were treated with Super-EBS and subjected to Western blot analysis for γH2AX (Ser 139) positivity to detect DNA double stranded breaks (DSB). Super-EBS induced DSBs in both C4-2 and LNCaP cells (FIGS. 7A-B).

[3] = system: CWR22Rv1 ENZ-sensitive cells; assay: Resazurin cell viability assay, CWR22Rv1 ENZ-sensitive; settings: CWR22Rv1 ENZ-sensitive, 24, 48 and 72 hours
Method: as §1, §2

[4] = system: CWR22Rv1 ENZ-resistant cells; assay: Resazurin cell viability assay, CWR22Rv1 ENZ-resistant; settings: CWR22Rv1 ENZ-resistant, 24, 48 and 72 hours
Method: as §1, §2

[5] = system: prostate cancer cells; assay: Growth inhibition / cell death of prostate cancer cell cultures; settings: for cell death: within 24 h
From the text: RAGE activation promotes proliferation, invasive bone homing, and metastasis of PCa cells.

[6] = system: CWR22Rv1 ENZ-sensitive cells; assay: ICC for active caspase 3 (apoptosis), CWR22Rv1 ENZ-sensitive; settings: 0.1-5 μM, 24 hours
Method: (§5) FIGS. 5A-B show images and graphs illustrating that Super-EBS causes cell death by the activation of an apoptotic cascade. (A) AR-v7 expressing CwR22Rv1 and CwR22Rv1 Enz(R) cells were treated with Super-EBS (0.1-5 μM) in 10% FBS for 24 h and tested by ICC analysis for cleaved caspase 3 (green) and DAPI (blue). (B) Quantitative representation of ICC data. *P<0.05; **P<0.01 by Student's t test.
(§6) After determining that the cells were sensitive to Super-EBS, they were tested to determine whether Super-EBS inhibited cell viability by inducing apoptosis. CWR22Rv1 ENZ-sensitive and CWR22Rv1 ENZ-resistant cell lines were treated with vehicle, 0.1-, 0.5-, 1- and 5-μM of Super-EBS for 24 hours. The cells were then subjected to immunocytochemical (ICC) analysis for active caspase 3 (green fluorescence) to detect apoptotic cells, and 4, 6-diamidino-2-phenylindole (DAPI) staining (blue fluorescence) to reveal the cell nucleus. Cells were scored for apoptosis under a confocal microscope and percent apoptosis was calculated. […] Mean+SD are shown. P<0.01 by Student's t-test.
(§7) Super-EBS causes cell death by the activation of an apoptotic cascade. […] CwR22Rv1 Enz(R) cells were also tested with Super-EBS for 24 h and subjected to FACS analysis using Annexin V and propidium iodide (PI) staining.

[7] = system: CWR22Rv1 ENZ-resistant cells; assay: ICC for active caspase 3 (apoptosis), CWR22Rv1 ENZ-resistant; settings: 0.1-5 μM, 24 hours
Method: as §5, §6, §7

[8] = system: CwR22Rv1 Enz(R) cells; assay: Annexin V-PI staining and FACS analysis for apoptotic cells; settings: 2 or 4 μM, 24 h
Method: CwR22Rv1 Enz(R) cells were treated with Super-EBS (2 or 4 μM) for 24 h in 10% FBS containing medium. Live cells were subjected to Annexin V-PI staining and FACS analysis for apoptotic cells. The percentage on the figure indicates the percentage of cells post treatment.
as §7

[9] = system: C4-2 cells; assay: Western blot for γH2AX (Ser139), DNA double stranded breaks, C4-2; settings: C4-2, 0.5 or 1 μM, 24 h
Method: as §3, §4

[10] = system: C4-2, C4-2R, LNCaP and M49C cells; assay: Resazurin cell viability assay, AR-positive cells and drug resistant counterparts; settings: 24 h, 10% FBS
Method: FIGS. 4A-B show graphs illustrating viability of androgen independent and androgen dependent cells treated with Super-EBS. (A) Androgen independent AR-positive C4-2 and C4-2R were treated with Super-EBS and vehicle control for 24 h in 10% FBS. Cell viability was measured by Resazurin assay. (B) Androgen dependent AR-positive LNCaP and M49C were treated under same condition and cell viability by Resazurin assay. *P<0.05; ** P<0.01 by the Student's t test.
In particular, cell viability of the AR-positive prostate cancer cells and their drug resistant counterparts was lower for the cells treated with Super-EBS.

[11] = system: CwR22Rv1 Par-4 knock-down cells; assay: γH2AX ICC / Western blot in Par-4 wild type and knock-down cells; settings: CwR22Rv1, 0.25 μM, 24 h
Method: FIGS. 8A-B show images illustrating that DNA damage induced by Super-EBS is mediated by Par-4. (A) CwR22Rv1 Par-4 wild type and knock-down cells were treated with Super-EBS (0.25 μM) for 24 h in medium containing 10% FBS, and then subjected to ICC for Par-4 (green) or YH2AX (Ser139) (red). (B) Western blot analysis for YH2AX, Par-4 and GAPDH was performed on lysates of Par-4 wild type (left) and knock-down (right) prostate cancer cells treated with Super-EBS (0.25 μM) for 24 h.
DNA damage induced by Super-EBS is mediated by Par-4.

| SMILES | cell viability (resazurin) ([1]; 72 hours) | DNA double stranded breaks (γH2AX Ser139) [2] | cell viability (resazurin) ([1]; 24 hours) | cell viability (resazurin), effective concentration ([1]; PC-3, 24, 48 and 72 hours) | cell viability (resazurin), effective concentration [3] | cell viability (resazurin), effective concentration [4] | concentration inducing apoptosis and growth inhibition ([5]; ENZ-resistant as well as ENZ-sensitive prostate cancer cells) | cell death ([5]; ENZ-resistant prostate cancer cell cultures) | cell death ([5]; ENZ-sensitive prostate cancer cell cultures) | potency in killing cells compared with EBS ([5]; parental and ENZ-resistant prostate cancer cell lines) | apoptosis (active caspase 3 ICC) relative to vehicle control [6] | apoptosis (active caspase 3 ICC) relative to vehicle control [7] | cells in the early and late stages of apoptosis (Annexin V/PI FACS) [8] | DNA double stranded breaks (γH2AX Ser139) [9] | cytotoxic effect compared with EBS ([10]; 10 μM) | susceptibility of LNCaP and M49C versus C4-2 and C4-2R to cytotoxic action [10] | γH2AX positivity after Par-4 knock-down [11] |
| --- | --- | --- | --- | --- | --- | --- | --- | --- | --- | --- | --- | --- | --- | --- | --- | --- | --- |
| CC(C)(C)c1ccc(C(=O)CCCN2CCC(OC(c3ccccc3)c3ccccc3)CC2)cc1 [EBS, 4-[4-(Diphenylmethoxy)-1-piperidinyl]-1-[4-(2-methyl-2-propanyl)phenyl]-1-butanone, reference compound] | sensitive | but not EBS induced significant amount of DSBs | – | – | – | – | – | – | – | – | – | – | – | – | – | – | – |
| CC(C)(C)c1ccc(/C(CCCN2CCC(OC(c3ccccc3)c3ccccc3)CC2)=N\C(=N)N)cc1 [Super-EBS] | – | induced DSBs | effective | effective at nanomolar concentrations | effective at nanomolar concentrations | effective at nanomolar concentrations | nanomolar concentrations | 95-98% | 95-98% | more potent than EBS | significantly higher levels; also recorded: dose dependent increase in apoptotic cells | significantly higher levels; also recorded: dose dependent increase in apoptotic cells | dose dependent increase | induced DSBs | more pronounced than EBS | more susceptible | decrease in the YH2AX positivity |
